Source: ChEMBL document CHEMBL1201862, “PubChem BioAssay data set” (2004)
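Values below derive from 48-hour exposures of cells grown in 96-well plates, with endpoints linearly interpolated between the two concentrations bracketing the appropriate inhibition level. Here, GI50 denotes the concentration required for 50% inhibition of growth.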 Activity calls are given as the source filed them. Rule as the data show it: active = GI50 up to about 1.1 µM and inactive = higher.

Experiments:
Experiment in all cases: NCI anticancer screen, dose series, 48 h
A498 = tested on: A498
SF-295 = tested on: SF-295
MDA-N = tested on: MDA-N
NCI-H522 = tested on: NCI-H522
SK-MEL-28 = tested on: SK-MEL-28
LOX IMVI = tested on: LOX IMVI
786-0 = tested on: 786-0
SNB-75 = tested on: SNB-75
SF-539 = tested on: SF-539
U-251 = tested on: U-251
MOLT-4 = tested on: MOLT-4
SK-MEL-5 = tested on: SK-MEL-5
CCRF-CEM = tested on: CCRF-CEM
CAKI-1 = tested on: CAKI-1
UACC-257 = tested on: UACC-257
HT-29 = tested on: HT-29
PC-3 = tested on: PC-3
MDA-MB-231 = tested on: MDA-MB-231
MDA-MB-435 = tested on: MDA-MB-435
NCI-H460 = tested on: NCI-H460
Hs-578T = tested on: Hs-578T
Malme-3M = tested on: Malme-3M
SW-620 = tested on: SW-620
ACHN = tested on: ACHN
NCI/ADR-RES = tested on: NCI/ADR-RES
RXF 393 = tested on: RXF 393
HCT-116 = tested on: HCT-116
SK-MEL-2 = tested on: SK-MEL-2
NCI-H226 = tested on: NCI-H226
M14 = tested on: M14
SK-OV-3 = tested on: SK-OV-3
UO-31 = tested on: UO-31
SF-268 = tested on: SF-268
DU-145 = tested on: DU-145
T47D = tested on: T47D
HCT-15 = tested on: HCT-15
RPMI-8226 = tested on: RPMI-8226
OVCAR-3 = tested on: OVCAR-3
OVCAR-8 = tested on: OVCAR-8
IGROV-1 = tested on: IGROV-1
HOP-62 = tested on: HOP-62
EKVX = tested on: EKVX
OVCAR-4 = tested on: OVCAR-4
OVCAR-5 = tested on: OVCAR-5
SR = tested on: SR
COLO 205 = tested on: COLO 205
BT-549 = tested on: BT-549
SNB-19 = tested on: SNB-19
KM12 = tested on: KM12
HCC 2998 = tested on: HCC 2998
MCF7 = tested on: MCF7
NCI-H23 = tested on: NCI-H23
A549 = tested on: A549
HL-60 = tested on: HL-60
SN12C = tested on: SN12C
TK-10 = tested on: TK-10
HOP-92 = tested on: HOP-92

O=C(O)c1cc2c(cc1CC(Cc1ccc3c(c1)CCC3)C(=O)O)CCC2 (configuration not stated)
GI50 (A498): > 100 µM (inactive) | GI50 (SF-295): > 100 µM (inactive) | GI50 (MDA-N): > 100 µM (inactive) | GI50 (NCI-H522): > 100 µM (inactive) | GI50 (SK-MEL-28): > 100 µM (inactive) | GI50 (LOX IMVI): > 100 µM (inactive) | GI50 (786-0): > 100 µM (inactive) | GI50 (SNB-75): 98.9 µM (inactive) | GI50 (SF-539): > 100 µM (inactive) | GI50 (U-251): > 100 µM (inactive) | GI50 (MOLT-4): > 100 µM (inactive) | GI50 (SK-MEL-5): > 100 µM (inactive) | GI50 (CCRF-CEM): > 100 µM (inactive) | GI50 (CAKI-1): > 100 µM (inactive) | GI50 (UACC-257): > 100 µM (inactive) | GI50 (HT-29): > 100 µM (inactive) | GI50 (PC-3): > 100 µM (inactive) | GI50 (MDA-MB-231): > 100 µM (inactive) | GI50 (MDA-MB-435): > 100 µM (inactive) | GI50 (NCI-H460): > 100 µM (inactive) | GI50 (Hs-578T): > 100 µM (inactive) | GI50 (Malme-3M): > 100 µM (inactive) | GI50 (SW-620): > 100 µM (inactive) | GI50 (ACHN): > 100 µM (inactive) | GI50 (NCI/ADR-RES): > 100 µM (inactive) | GI50 (RXF 393): > 100 µM (inactive) | GI50 (HCT-116): > 100 µM (inactive) | GI50 (SK-MEL-2): > 100 µM (inactive) | GI50 (NCI-H226): > 100 µM (inactive) | GI50 (M14): > 100 µM (inactive) | GI50 (SK-OV-3): > 100 µM (inactive) | GI50 (UO-31): > 100 µM (inactive) | GI50 (SF-268): > 100 µM (inactive) | GI50 (DU-145): > 100 µM (inactive) | GI50 (T47D): > 100 µM (inactive) | GI50 (HCT-15): > 100 µM | GI50 (RPMI-8226): > 100 µM (inactive) | GI50 (OVCAR-3): > 100 µM (inactive) | GI50 (OVCAR-8): > 100 µM (inactive) | GI50 (IGROV-1): > 100 µM (inactive) | GI50 (HOP-62): > 100 µM (inactive) | GI50 (EKVX): > 100 µM (inactive) | GI50 (OVCAR-4): > 100 µM (inactive) | GI50 (OVCAR-5): > 100 µM (inactive) | GI50 (SR): > 100 µM (inactive) | GI50 (COLO 205): > 100 µM (inactive) | GI50 (BT-549): > 100 µM (inactive) | GI50 (SNB-19): > 100 µM (inactive) | GI50 (KM12): > 100 µM (inactive) | GI50 (HCC 2998): > 100 µM (inactive) | GI50 (MCF7): > 100 µM (inactive) | GI50 (NCI-H23): > 100 µM (inactive) | GI50 (A549): > 100 µM (inactive) | GI50 (HL-60): > 100 µM (inactive) | GI50 (SN12C): > 100 µM (inactive) | GI50 (TK-10): > 100 µM (inactive) | GI50 (HOP-92): 20.6 µM (inactive)
